# Assay results reported in patent publication US10160762B2, “6-alkyl dihydropyrazolopyrimidinone compounds as PDE2 inhibitors” (Merck Sharp & Dohme Corp., priority 2015, dated 2018).
# Molecular target: T1, human PDE2A1 (Homo sapiens, UniProt O00408)
# T1 construct: GST; purchased BPS Bioscience (San Diego, Calif.) 60020; host or cells: insect cells
# Experiment: IMAP FP PDE assay, human PDE2A1
# Type: biochemical
# Conditions: Lab B; read-out: Human PDE2 Ki (nM) Lab B
# Summary of the method: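 GST-tagged human PDE2A1 from insect cells; substrate 50 nM FAM-cAMP containing 1000 nM cGMP in Tris pH 7.2/MgCl2/DTT buffer, enzyme giving 20% conversion. 60 min at room temperature, IMAP binding reagent, fluorescence polarization read. Apparent Ki from FP readings using apparent KM 10,000 nM; ten-point 3-fold titrations.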
# T1 sequence (O00408 1-920 isoform O00408-2): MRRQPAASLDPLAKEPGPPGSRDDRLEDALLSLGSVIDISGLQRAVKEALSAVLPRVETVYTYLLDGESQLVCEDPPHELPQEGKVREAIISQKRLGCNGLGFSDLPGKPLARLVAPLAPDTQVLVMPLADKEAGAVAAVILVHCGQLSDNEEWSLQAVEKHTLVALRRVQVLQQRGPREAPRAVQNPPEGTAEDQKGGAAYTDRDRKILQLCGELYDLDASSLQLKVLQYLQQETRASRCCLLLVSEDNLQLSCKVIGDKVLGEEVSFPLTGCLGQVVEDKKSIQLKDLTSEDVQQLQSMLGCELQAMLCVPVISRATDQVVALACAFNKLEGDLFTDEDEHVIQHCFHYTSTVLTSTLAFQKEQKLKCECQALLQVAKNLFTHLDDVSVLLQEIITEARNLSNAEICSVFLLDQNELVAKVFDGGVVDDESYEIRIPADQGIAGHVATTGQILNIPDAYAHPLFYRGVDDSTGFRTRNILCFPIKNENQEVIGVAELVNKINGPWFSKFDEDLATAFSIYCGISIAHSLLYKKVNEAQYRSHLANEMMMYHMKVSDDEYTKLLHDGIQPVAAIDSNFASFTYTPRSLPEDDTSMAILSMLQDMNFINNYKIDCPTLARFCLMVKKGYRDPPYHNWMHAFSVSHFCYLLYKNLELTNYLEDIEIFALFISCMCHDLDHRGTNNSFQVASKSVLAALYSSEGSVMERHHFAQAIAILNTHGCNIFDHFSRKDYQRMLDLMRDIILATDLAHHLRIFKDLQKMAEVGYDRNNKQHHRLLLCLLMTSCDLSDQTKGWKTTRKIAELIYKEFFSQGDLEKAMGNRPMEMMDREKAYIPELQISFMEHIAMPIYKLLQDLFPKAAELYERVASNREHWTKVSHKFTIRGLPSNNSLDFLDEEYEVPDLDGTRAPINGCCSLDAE
row,SMILES,Ki
1,"Cc1nc2c(c(CO)nn2C(C)c2ccc(C(F)(F)F)cc2I)c(=O)[nH]1 (single isomer, unassigned) [Example 141, (S)- or (R)-3-(Hydroxymethyl)-1-(1-(2-iodo-4-(trifluoromethyl-)phenyl)ethyl)-6-methyl-1,5-dihydro-4H-pyrazolo[3,4-d]pyrimidin-4-one]",12 nM
2,"Cc1nc2c(c(CO)nn2C(C)c2ccc(C3(C)CC3)cc2)c(=O)[nH]1 (single isomer, unassigned) [Example 143, (R)- or (S)-3-(Hydroxymethyl)-6-methyl-1-(1-(4-(1-methylcyclopropyl)phenyl)ethyl)-1H-pyrazolo[3,4-d]pyrimidin-4(5H)-one]",193 nM
3,"Cc1nc2c(c(CO)nn2C(C)c2ccc(C3(C)CC3)cc2)c(=O)[nH]1 (single isomer, unassigned) [Example 144, (S)- or (R)-3-(Hydroxymethyl)-6-methyl-1-(1-(4-(1-methylcyclopropyl)phenyl)ethyl)-1H-pyrazolo[3,4-d]pyrimidin-4(5H)-one]",0.59 nM
4,"Cc1nc2c(c(CO)nn2C(C)c2ccc(C(F)(F)F)nn2)c(=O)[nH]1 (single isomer, unassigned) [Example 145, (R)- or (S)-3-(Hydroxymethyl)-6-methyl-1-(1-(6-(trifluoromethyl)pyridazin-3-yl)ethyl)-1H-pyrazolo[3,4-d]pyrimidin-4(5H)-one]",> 2960 nM
5,"Cc1nc2c(c(CO)nn2C(C)c2ccc(C(F)(F)F)nn2)c(=O)[nH]1 (single isomer, unassigned) [Example 146, (S)- or (R)-3-(Hydroxymethyl)-6-methyl-1-(1-(6-(trifluoromethyl)pyridazin-3-yl)ethyl)-1H-pyrazolo[3,4-d]pyrimidin-4(5H)-one]",58 nM
6,"Cc1nc2c(c(CO)nn2C(C)c2ncn(CC(F)(F)F)n2)c(=O)[nH]1 (single isomer, unassigned) [Example 147]",> 2960 nM
7,"Cc1nc2c(c(CO)nn2C(C)c2ncn(CC(F)(F)F)n2)c(=O)[nH]1 (single isomer, unassigned) [Example 148]",671 nM
8,"Cc1nc2c(c(CO)nn2C(C)c2cnn(CC(F)(F)F)c2)c(=O)[nH]1 (single isomer, unassigned) [Example 149, (R)- or (S)-3-(Hydroxymethyl)-6-methyl-1-(1-(1-(2,2,2-trifluoroethyl)-1H-pyrazol-4-yl)ethyl)-1H-pyrazolo[3,4-d]pyrimidin-4(5H)-one]",> 2960 nM
9,"Cc1nc2c(c(CO)nn2C(C)c2cnn(CC(F)(F)F)c2)c(=O)[nH]1 (single isomer, unassigned) [Example 150, (S)- or (R)-3-(Hydroxymethyl)-6-methyl-1-(1-(1-(2,2,2-trifluoroethyl)-1H-pyrazol-4-yl)ethyl)-1H-pyrazolo[3,4-d]pyrimidin-4(5H)-one]",158 nM
10,"Cc1nc2c(c(CO)nn2C(C)c2ccc(C(F)(F)F)cn2)c(=O)[nH]1 (single isomer, unassigned) [Example 151, (R)- or (S)-3-(Hydroxymethyl)-6-methyl-1-(1-(5-(trifluoromethyl)pyridin-2-yl)ethyl)-1H-pyrazolo[3,4-d]pyrimidin-4(5H)-one]",25 nM
11,"Cc1nc2c(c(CO)nn2C(C)c2ccc(C(F)(F)F)cn2)c(=O)[nH]1 (single isomer, unassigned) [Example 152, (S)- or (R)-3-(Hydroxymethyl)-6-methyl-1-(1-(5-(trifluoromethyl)pyridin-2-yl)ethyl)-1H-pyrazolo[3,4-d]pyrimidin-4(5H)-one]",1180 nM
12,"Cc1nc2c(c(CO)nn2C(C)c2ccc(Cl)s2)c(=O)[nH]1 (single isomer, unassigned) [Example 153, (R)- or (S)-1-(1-(5-Chlorothiophen-2-yl)ethyl)-3-(hydroxymethyl)-6-methyl-1H-pyrazolo[3,4-d]pyrimidin-4(5H)-one]",> 2960 nM
13,"Cc1nc2c(c(CO)nn2C(C)c2ccc(Cl)s2)c(=O)[nH]1 (single isomer, unassigned) [Example 154, (S)- or (R)-1-(1-(5-Chlorothiophen-2-yl)ethyl)-3-(hydroxymethyl)-6-methyl-1H-pyrazolo[3,4-d]pyrimidin-4(5H)-one]",18 nM
14,"Cc1nc2c(c(CO)nn2C(C)c2ccc(C(F)(F)F)s2)c(=O)[nH]1 (single isomer, unassigned) [Example 155, (R)- or (S)-3-(Hydroxymethyl)-6-methyl-1-(1-(5-(trifluoromethyl)thiophen-2-yl)ethyl)-1H-pyrazolo[3,4-d]pyrimidin-4(5H)-one]",~1630 nM
15,"Cc1nc2c(c(CO)nn2C(C)c2ccc(C(F)(F)F)s2)c(=O)[nH]1 (single isomer, unassigned) [Example 156, (S)- or (R)-3-(Hydroxymethyl)-6-methyl-1-(1-(5-(trifluoromethyl)thiophen-2-yl)ethyl)-1H-pyrazolo[3,4-d]pyrimidin-4(5H)-one]",8.5 nM
16,"Cc1nc2c(c(C(F)F)nn2C(C)c2ccc(S(F)(F)(F)(F)F)cc2)c(=O)[nH]1 (single isomer, unassigned) [Example 161]",224 nM
17,"Cc1nc2c(c(C(F)F)nn2C(C)c2ccc(S(F)(F)(F)(F)F)cc2)c(=O)[nH]1 (single isomer, unassigned) [Example 162]",1.8 nM
18,"Cc1nc2c(c(C(F)F)nn2C(C)c2ccc(C(F)(F)F)c(F)c2)c(=O)[nH]1 (single isomer, unassigned) [Example 167, (R)- or (S)-3-(Difluoromethyl)-1-(1-(3-fluoro-4-(trifluoromethyl)phenyl)ethyl)-6-methyl-1H-pyrazolo[3,4-d]pyrimidin-4(5H)-one]",256 nM
19,"Cc1nc2c(c(C(F)F)nn2C(C)c2ccc(C(F)(F)F)c(F)c2)c(=O)[nH]1 (single isomer, unassigned) [Example 168, (S)- or (R)-3-(Difluoromethyl)-1-(1-(3-fluoro-4-(trifluoromethyl)phenyl)ethyl)-6-methyl-1H-pyrazolo[3,4-d]pyrimidin-4(5H)-one]",1.4 nM
20,"Cc1nc2c(c(C(F)F)nn2C(C)c2ccc(OC(F)(F)F)c(F)c2)c(=O)[nH]1 (single isomer, unassigned) [Example 169, (R)- or (S)-3-(Difluoromethyl)-1-(1-(3-fluoro-4-(trifluoromethoxy)phenyl)ethyl)-6-methyl-1H-pyrazolo [3,4-d]pyrimidin-4(5H)-one]",18 nM
21,"Cc1nc2c(c(C(F)F)nn2C(C)c2ccc(OC(F)(F)F)c(F)c2)c(=O)[nH]1 (single isomer, unassigned) [Example 170, (S)- or (R)-3-(Difluoromethyl)-1-(1-(3-fluoro-4-(trifluoromethoxy)phenyl)ethyl)-6-methyl-1H-pyrazolo [3,4-d]pyrimidin-4(5H)-one]",0.48 nM
22,"Cc1nc2c(c(C(F)F)nn2C(c2ccc(C(F)(F)F)cc2)C(C)C)c(=O)[nH]1 (single isomer, unassigned) [Example 171, (R)- or (S)-3-(Difluoromethyl)-6-methyl-1-(2-methyl-1-(4-(trifluoromethyl)phenyl)propyl)-1H-pyrazolo[3,4-d] pyrimidin-4(5H)-one]",43 nM
23,"Cc1nc2c(c(C(F)F)nn2C(c2ccc(C(F)(F)F)cc2)C(C)C)c(=O)[nH]1 (single isomer, unassigned) [Example 172, (S)- or (R)-3-(Difluoromethyl)-6-methyl-1-(2-methyl-1-(4-(trifluoromethyl)phenyl)propyl)-1H-pyrazolo[3,4-d] pyrimidin-4(5H)-one]",0.31 nM
